According to patent publication US20120183660A1, “ISOMANNIDE DERIVATIVES AND THEIR USE AS TASTANTS” (Senomyx, Inc., priority 2009, published 2012):

System: un-induced I-17 cells
Assay: FLIPR assay on un-induced I-17 cells (no mifepristone induction of receptor expression)
Type: cell-based
Details: compounds at 10 μM—or three times the maximum stimulation used in the dose-response analysis
Experimental: In order to determine the dependency of hT1R1/hT1R3 for the cell response to different stimuli, selected compounds were subjected to a similar analysis on I-17 cells that had not been induced for receptor expression with mifepristone (designated as un-induced I-17 cells). […] Compounds were presented to un-induced umami cells at […]—or three times the maximum stimulation used in the dose-response analysis.

**Q.** Which “functional response in the FLIPR assay on un-induced umami cells” value does the source give for N[C@@H](CCC(=O)O)C(=O)[O-].[Na+] [monosodium glutamate] here?
**A.** do not show any functional response
